The target in experiment [1] is L-type amino acid transporter 1 (LAT-1) (Homo sapiens, UniProt Q01650). To be noted: cited from earlier work.
Experiment [2] relates to human bladder cancer T24 cell line. To be noted: cited from earlier work.
The subject of the next experiment is tumor. The note with it: in vivo; cited from earlier work.
The next experiment concerns 26S proteasome. Nature of the experiment: Proteasome subcellular localization in cultured cells (immunofluorescence, western blot of nuclear fractions). In kind it is cell-based. To be noted: for proteasome localization without exogenous starvation: non-stressed cells, complete medium; for starvation-induced proteasome translocation from the nucleus to the cytosol: substance added to amino acid starvation medium, 8 h. The procedure: (§1) Cells were seeded on glass cover slips for 36 h. Following the indicated treatments, they were fixed with 4% PFA for 15 min, washed with (phosphate-buffered saline) PBS and incubated in PBS containing 10% goat serum for 1h at room temperature, followed by 2 h incubation with the indicated primary antibody. Following extensive wash with PBS, the fixed cells were incubated with the relevant secondary antibody for 1 h, washed and mounted. Images were acquired using Zeiss LSM 700 confocal microscope (Zeiss, Oberkochen, Germany).
The proteasome subunits α6, β1, and PSMD1 were visualized via indirect immunofluorescence, using primary and secondary antibodies listed under Key Resources Table. To observe the proteasome in live cells, we expressed the cDNAs of the β4, Rpn2, Rpn6, and Rpn13 proteasome subunits C-terminally fused with GFP. Photoconversion of proteasome-fused Dendra2 was carried out as previously described (McKinney et al., 2009 Nat Methods. 131-133).
Cells were incubated for 20 min in fractionation buffer [20 mM HEPES pH 7.3, 10 mM KCl, 5 mM ATP, 5 mM MgCl2, and protease inhibitor cocktail (Roche)], followed by the addition of NP-40 (to 0.1%). They were then mixed thoroughly and centrifuged at 1,000×g for 5 min. The supernatant was collected as cytosolic fraction, and the pellet (nuclei) was washed twice with PBS. To dissolve the nuclear pellet, fractionation buffer supplemented with 0.5% sodium deoxycholate was added followed by sonication.
(§2) Cells were washed twice with ice cold PBS and scraped into lysis buffer (50 mM Tris-HCl, pH 7.4, 130 mM NaCl, 0.5% NP-40) supplemented with freshly added protease inhibitor cocktail, 5 mM ATP, 10 mM iodoacetamide, and 5 mM N-ethyl maleimide. Protein concentration was measured by the BCA assay according to the manufacturer's instructions (Pierce, Rockford, IL). 30 μg of cellular protein were resolved via SDS-PAGE, transferred to a nitrocellulose membrane and immunoblotted with the appropriate antibody.
A general note: A western blot detects proteins with antibodies after separation by electrophoresis.

Experiment [3] deals with proteasome subunit beta type-5 (PSMB5) (Homo sapiens, UniProt P20618+P28074). To be noted: cited from earlier work.
In the next experiment the target is T1, exportin-1 (Homo sapiens, UniProt O14980).
T1 construct: endogenous in cells; host or cells: HeLa
Nature of the experiment: Nuclear export of exportin-1 substrates (p65, APC, NES-GFP) in HeLa cells. In kind it is cell-based. The note with it: 8 h. The procedure:
FIG. 4G. HeLa cells were incubated under the indicated conditions, and the β4 subunit of the proteasome as well as the p65 subunit of NF-κB—which is a CRM1 substrate—were visualized.
FIG. 4H. HeLa cells were incubated under the indicated conditions, and the β4 subunit of the proteasome as well as the CRM1 substrate APC (adenomatous polyposis coli) were visualized.
FIG. 4I. HeLa cells infected with GFP fused to a nuclear export signal (NES) were incubated for 8h under the indicated conditions. The GFP was visualized.
as §1

Experiment [4] deals with cellular proteins. Nature of the experiment: Degradation of radiolabeled cellular proteins. In kind it is cell-based. To be noted: starved cells. The method, then:
Cells were labeled with […] methionine and cysteine (20 μCi/ml) for 16 h. This was followed extensive washing and further incubation in a medium containing 2 mM of the two unlabeled amino acids for 8 h. Degradation rates were assessed by determining the release of labeled amino acids to the incubation medium relative to the radioactivity remained in the cellular proteins (using Trichloroacetic acid precipitation to separate between the two) (Gropper et al., 1991, JPEN J Parenter Enteral Nutr 15, 48-53.).

In a further experiment the test system is ubiquitin adducts. Nature of the experiment: Western blot for ubiquitin adducts. To be noted: starved cells. In kind it is cell-based. The procedure:
FIG. 5E. Western blot for ubiquitin adducts of extracts of cells treated as indicated. Intensities relative to control are presented.
as §2

The next experiment has as its system proteasome. Nature of the experiment: Live imaging of proteasome activity probe Me4BodipyFL-Ahx3Leu3VS in cells. In kind it is cell-based. The note with it: added to the starvation medium. The method, then: Live cell proteasome activity was followed as previously described (Berkers et al., 2007, Mol Pharm; 4(5):739-48.). In brief, Me4BodipyFL-Ahx3Leu3VS was added to the medium to a final concentration of 1 μM. Following incubation for 15 min, the cells were visualized by a Zeiss LSM 700 confocal microscope. In vitro proteasome activity assay was carried out as previously described (Braten et al., 2016). In brief, cellular fractions were incubated at 37° C. for 30 min with 5 μM Suc-LLVY-AMC (Succinyl-Lu-Leu-Val-Tyr-amido-4-methylcoumarin) in a reaction buffer (40 mM Tris-HCl pH 7.2, 2 mM DTT, 5 mM MgCl2, 10 mM creatine phosphate, 0.1 mg/ml creatine phosphate kinase, 5 mM ATP). Reactions were stopped by adding 1% SDS, and fluorescence was measured at 360 nm/460 nm (ex/em).

In experiment [5] the test system is cellular proteins. Nature of the experiment: Proteomic analysis of cellular protein levels. The note with it: amino acid starvation. In kind it is cell-based, human. The method, then:
2-3 mg of cell extract protein in 8 M Urea and 100 mM ammonium bicarbonate, were incubated with DTT (2.8 mM; 30 min at 60° C.), modified with iodoacetamide (8.8 mM; 30 min at room temperature in the dark), and digested (overnight at 37° C.) with modified trypsin (Promega; 1:50 enzyme-to-substrate ratio) in 2 M Urea and 25 mM ammonium bicarbonate. Additional second trypsinization was carried out for 4 hours. The tryptic peptides were desalted using Sep-Pak C18 (Waters) and dried. 10 μg of protein were used for proteome analysis as described under Mass spectrometry.
Tryptic peptides were analyzed by LC-MS/MS using a Q Exactive plus mass spectrometer (Thermo Fisher Scientific) fitted with a capillary HPLC (easy nLC 1000, Thermo). […]
The mass spectrometry raw data were analyzed by the MaxQuant software (version 1.4.1.2, http://www.maxquant.org) for peak picking and quantification. […] The MaxQuant software was used for label-free semi-quantitative analysis [based on extracted ion currents (XICs) of peptides], enabling quantification from each LC/MS run for each peptide identified in any of the experiments. In samples that were SILAC-labeled, quantification was also carried out using the MaxQuant software. […]

Experiment [6] can be described thus: Amino acids level measurement (LC-MS). In kind it is cell-based. The note with it: Torin1-treated cells. The method, then:
Metabolic analysis was carried out as previously described (MacKay et al., 2015). Briefly, cells were rapidly washed 3 times with ice-cold PBS and extracted with an aqueous solution of 50% Methanol, and 30% Acetonitrile. Samples were centrifuged at 16,000×g for 10 min at 4° C., and the supernatants were analyzed using HPLC-MS (Q-Exactive Orbitrap Mass Spectrometer (Thermo Scientific) coupled to Thermo Scientific UltiMate 3000 HPLC system). The HPLC setup consisted of a ZIC-pHILIC column (SeQuant, 150×2.1 mm, 5 μm, Merck) with a ZIC-pHILIC guard column (SeQuant, 20×2.1 mm). The aqueous mobile phase solvent was 20 mM ammonium carbonate adjusted to pH 9.4 with 0.1% ammonium hydroxide. The organic mobile phase was acetonitrile. […] All metabolites were detected across a mass range of 75-1,000 m/z using the Q-Exactive mass spectrometer at a resolution of 35,000 (at 200 m/z) with electrospray ionization and polarity switching mode. […] The peak areas of different Amino Acids were determined using Thermo TraceFinder software through which metabolites were identified by the exact mass of the singly charged ion and by known retention time on the HPLC column. Commercially available standard compounds had been analyzed before to determine ion masses and retention times on the ZIC-pHILIC column. Protein quantitation based on the Lowry method was performed for normalization.

T1 sequence (O14980 whole entry): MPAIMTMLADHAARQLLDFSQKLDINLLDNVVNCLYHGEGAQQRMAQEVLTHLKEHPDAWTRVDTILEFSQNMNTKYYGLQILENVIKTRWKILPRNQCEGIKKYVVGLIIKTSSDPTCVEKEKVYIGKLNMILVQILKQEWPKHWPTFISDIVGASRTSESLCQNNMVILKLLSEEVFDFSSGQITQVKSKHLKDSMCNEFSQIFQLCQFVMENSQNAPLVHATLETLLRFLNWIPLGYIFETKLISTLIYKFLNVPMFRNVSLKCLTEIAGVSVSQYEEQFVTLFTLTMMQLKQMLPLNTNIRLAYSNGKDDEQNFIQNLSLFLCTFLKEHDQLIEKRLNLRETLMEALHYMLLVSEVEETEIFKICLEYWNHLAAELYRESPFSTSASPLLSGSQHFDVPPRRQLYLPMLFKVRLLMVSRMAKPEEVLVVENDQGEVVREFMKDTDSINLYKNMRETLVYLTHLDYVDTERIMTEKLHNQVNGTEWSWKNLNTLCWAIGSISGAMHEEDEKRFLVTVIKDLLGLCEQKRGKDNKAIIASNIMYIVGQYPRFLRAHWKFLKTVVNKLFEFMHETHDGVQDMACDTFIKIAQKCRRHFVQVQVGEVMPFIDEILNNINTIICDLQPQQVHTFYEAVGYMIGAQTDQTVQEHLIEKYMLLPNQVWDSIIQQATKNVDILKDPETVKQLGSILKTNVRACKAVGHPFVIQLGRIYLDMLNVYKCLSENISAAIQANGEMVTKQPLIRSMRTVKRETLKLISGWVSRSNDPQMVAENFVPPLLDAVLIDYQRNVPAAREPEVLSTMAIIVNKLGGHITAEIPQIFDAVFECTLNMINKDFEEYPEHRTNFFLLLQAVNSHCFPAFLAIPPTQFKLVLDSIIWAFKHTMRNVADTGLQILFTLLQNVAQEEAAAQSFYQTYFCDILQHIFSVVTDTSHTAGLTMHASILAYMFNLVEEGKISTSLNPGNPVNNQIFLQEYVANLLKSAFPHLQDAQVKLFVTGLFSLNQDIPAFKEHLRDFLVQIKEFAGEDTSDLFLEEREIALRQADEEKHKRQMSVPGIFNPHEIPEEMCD
Sequence of L-type amino acid transporter 1 (LAT-1) (Q01650 whole entry): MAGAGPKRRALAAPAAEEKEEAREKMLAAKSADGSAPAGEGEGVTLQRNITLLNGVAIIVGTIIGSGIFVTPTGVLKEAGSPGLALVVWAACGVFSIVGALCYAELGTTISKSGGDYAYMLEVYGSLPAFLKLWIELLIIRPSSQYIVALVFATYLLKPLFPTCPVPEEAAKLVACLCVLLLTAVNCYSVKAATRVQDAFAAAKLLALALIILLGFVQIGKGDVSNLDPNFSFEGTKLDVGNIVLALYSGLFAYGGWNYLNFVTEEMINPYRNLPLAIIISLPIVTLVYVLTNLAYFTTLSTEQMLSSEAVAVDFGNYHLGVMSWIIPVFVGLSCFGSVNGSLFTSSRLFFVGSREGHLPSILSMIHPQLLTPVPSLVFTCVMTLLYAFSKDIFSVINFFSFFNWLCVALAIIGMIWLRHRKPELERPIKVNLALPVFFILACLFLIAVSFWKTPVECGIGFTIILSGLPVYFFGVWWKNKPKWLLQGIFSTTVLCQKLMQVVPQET
Sequence of L-type amino acid transporter 1 (LAT-1) (P08195 102-630 partner): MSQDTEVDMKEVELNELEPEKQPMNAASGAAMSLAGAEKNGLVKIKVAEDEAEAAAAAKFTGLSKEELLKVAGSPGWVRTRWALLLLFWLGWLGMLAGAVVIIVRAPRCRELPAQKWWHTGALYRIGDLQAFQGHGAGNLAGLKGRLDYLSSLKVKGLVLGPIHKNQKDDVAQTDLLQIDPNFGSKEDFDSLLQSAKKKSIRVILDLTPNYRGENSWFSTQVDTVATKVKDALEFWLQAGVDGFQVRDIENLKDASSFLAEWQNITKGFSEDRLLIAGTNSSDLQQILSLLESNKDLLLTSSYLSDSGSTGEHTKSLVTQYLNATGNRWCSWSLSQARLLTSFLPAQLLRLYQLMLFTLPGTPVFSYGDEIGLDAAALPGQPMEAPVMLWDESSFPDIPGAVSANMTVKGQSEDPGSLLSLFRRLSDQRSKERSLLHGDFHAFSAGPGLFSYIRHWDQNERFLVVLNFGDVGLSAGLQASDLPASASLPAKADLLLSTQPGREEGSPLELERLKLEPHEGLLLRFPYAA

Take `N[C@@H](Cc1cccc(Oc2ccc3ccccc3c2)c1)C(=O)O` [3-(2-naphthyloxy)-L-phenylalanine]: the “intracellular 14C-Leucine” value in experiment [1] was “reduction”. Moreover, in experiment [2], the “T24 cell line proliferation” value is listed as “inhibition”. In the experiment on tumor, the tumor growth result is “inhibition of tumor growth”. As for `Cn1cnc(N)c2ncnc1-2` [3-MA, 3-methyl adenine], the “proteasome localization without exogenous starvation” value in the experiment on 26S proteasome is reported as “induced the same effect”. Take `CC(C)C[C@H](NC(=O)CNC(=O)c1cc(Cl)ccc1Cl)B(O)O` [Ixazomib, N^2-(2,5-Dichlorobenzoyl)-N-[(1R)-1-(dihydroxyboryl)-3-methylbutyl]glycinamide]: the “mode of PSMB5 inhibition” value in experiment [3] was “selectively and reversibly inhibits”. For `CCC(=C/[C@H](C)C/C=C/C(C)=C/[C@@H](C)C(=O)[C@@H](C)[C@H](O)[C@@H](C)C/C(C)=C/C(=O)O)/C=C/[C@@H]1OC(=O)C=C[C@@H]1C` [LMB, Leptomycin B], the “proteasome distribution in cells lacking NUP93” value in the experiment with 26S proteasome (NUP93 silenced, starvation) is “neither YWF nor LMB had a significant effect on its distribution”. Moreover, in the experiment on 26S proteasome, the “proteasome localization without exogenous starvation” value is on record as “nuclear accumulation of the proteasome” and the “starvation-induced proteasome translocation from the nucleus to the cytosol” value was “inhibition of the translocation”. Further, the “cellular distribution of GFP fused to nuclear export signal (NES)” value on exportin-1 was “leads to nuclear accumulation”. For the same compound, the “starvation-induced stimulation of protein breakdown” value in the experiment with cellular proteins [4] is “inhibition of starvation-induced stimulation of protein breakdown”. In addition, in the experiment on ubiquitin adducts, the “degradation and depletion of ubiquitin adducts” value was “inhibits degradation and depletion of ubiquitin adducts”. For the same compound, the “migration of proteasomal activity from the nucleus” value with proteasome is “inhibits the migration of proteasomal activity from the nucleus”. The “starvation-induced reduction in the level of ~900 proteins” value in the experiment with cellular proteins [5] is given as “prevented”. In addition, the “gain in amino acids produced by Torin1” value in experiment [6] was “significantly inhibits the gain in amino acids”. As to `CCC(=O)N1CCN(c2ccc(-n3c(=O)ccc4cnc5ccc(-c6cnc7ccccc7c6)cc5c43)cc2C(F)(F)F)CC1` [Torin1], the “proteasome localization without exogenous starvation” value in the experiment with 26S proteasome was “induces nuclear export of both 20S and 19S sub-complexes”. For the compound `N[C@@H](Cc1c[nH]c2ccccc12)C(=O)O` [Trp, Tryptophan], in the experiment on 26S proteasome, the “starvation-induced proteasome translocation from the nucleus to the cytosol” value is listed as “significant effect”. As to `N[C@@H](Cc1ccc(O)cc1)C(=O)O` [Tyr, 4-hydroxyphenylalanine], the “starvation-induced proteasome translocation from the nucleus to the cytosol” value in the experiment on 26S proteasome is recorded as “significant effect”. In the case of `CC(C)C[C@H](NC(=O)[C@H](CCc1ccccc1)NC(=O)CN1CCOCC1)C(=O)N[C@@H](Cc1ccccc1)C(=O)N[C@@H](CC(C)C)C(=O)[C@@]1(C)CO1` [carfilzomib, (2S)-4-Methyl-N-[(2S)-1-[[(2S)-4-methyl-1-[(2R)-2-methyloxiran-2-yl]-1-oxopentan-2-yl]amino]-1-oxo-3-phenylpropan-2-yl]-2-[[(2S)-2-[(2-morpholin-4-ylacetyl)amino]-4-phenylbutanoyl]amino]pentanamide], the “mode of PSMB5 inhibition” value in experiment [3] was “irreversibly”. Take `C[C@@H]1C[C@@H]([C@H](O)CC2CC(=O)NC(=O)C2)C(=O)[C@@H](C)C1` [cycloheximide]: the “reappearance of the proteasome in the nucleus after amino acid replenishment” value in the experiment with 26S proteasome (8 h starvation, then replenishment in presence of the substance) is given as “does not prevent the reappearance of the proteasome in the nucleus”. As for Ivermectin, in the experiment on 26S proteasome, the “proteasome localization without exogenous starvation” value was “cytosolic accumulation”. On to Tunicamycin, for which the “proteasome localization without exogenous starvation” value in the experiment with 26S proteasome is listed as “inducing proteasome nuclear export”.
